# From patent US7351726B2, “Substituted oxadiazolidinediones” (Wyeth, priority 2003, dated 2008)
# Tests used:
# human PAI-1 = human PAI-1 (Homo sapiens, UniProt P05121); experiment: Assay for determining IC50 of inhibition of PAI-1 (tPA-coated plate, antibody detection of active PAI-1); type: binding; details: active human PAI-1 bound to tPA-coated plate; pH 7.5; compound 1-50 μM
# Protocol: This assay is based upon the non-SDS dissociable interaction between tPA and active PAI-1. Assay plates are initially coated with human tPA (10 μg/ml). Substituted oxadiazolidinedione of the present invention are dissolved in DMSO at 10 mM, then diluted with physiologic buffer (pH 7.5) to a final concentration of 1-50 μM. WAY compounds are incubated with human PAI-1 (50 ng/ml) for 15 minutes at room temperature. The tPA-coated plate is washed with a solution of 0.05% Tween 20 and 0.1% BSA, then the plate is blocked with a solution of 3% BSA. An aliquot of the substituted oxadiazolidinedione/PA-1 solution is then added to the tPA-coated plate, incubated at room temperature for 1 hour, and washed. Active PAI-1 bound to the plate is assessed by adding an aliquot of a 1:1000 dilution of the 33B8 monoclonal antibody against human PAI-1, and incubating the plate at room temperature for 1 hour (Molecular Innovations, Royal Oak, Mich.). […] The plate is incubated 45 minutes at room temperature, and color development is determined at OD405nm. The quantitation of active PAI-1 bound to tPA at varying concentrations of substituted oxadiazolidinedione is used to determine the IC50. Results are analyzed using a logarithmic best-fit equation. The assay sensitivity is 5 ng/ml of human PAI-1 as determined from a standard curve ranging from 0-100 ng/ml.
# [1] = target: T1, recombinant human plasminogen activator inhibitor-1 (PAI-1) (Homo sapiens, UniProt P05121); experiment: Primary screen for PAI-1 inhibition (chromogenic tPA activity assay); type: biochemical; details: 100 μM compound; 140 nM PAI-1, 70 nM tPA; pH 6.6
# T1 construct: purchased Molecular Innovations, Royal Oak, Mich
# T1 sequence (P05121 24-402): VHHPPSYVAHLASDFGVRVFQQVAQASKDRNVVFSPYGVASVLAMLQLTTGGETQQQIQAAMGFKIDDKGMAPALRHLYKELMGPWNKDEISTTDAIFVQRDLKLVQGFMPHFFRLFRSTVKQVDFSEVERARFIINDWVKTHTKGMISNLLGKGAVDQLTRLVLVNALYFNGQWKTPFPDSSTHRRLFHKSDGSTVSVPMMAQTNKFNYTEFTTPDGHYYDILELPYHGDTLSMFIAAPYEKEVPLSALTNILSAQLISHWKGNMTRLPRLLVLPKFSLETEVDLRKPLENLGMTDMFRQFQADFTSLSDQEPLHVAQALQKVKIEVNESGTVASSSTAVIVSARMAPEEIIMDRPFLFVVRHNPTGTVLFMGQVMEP
# Protocol: Test compounds are dissolved in DMSO at a final concentration of 10 mM, then diluted 100× in physiologic buffer. The inhibitory assay is initiated by the addition of the substituted oxadiazolidinedione (1-100 μM final concentration, maximum DMSO concentration of 0.2%) in a pH 6.6 buffer containing 140 nM recombinant human plasminogen activator inhibitor-1 (PAI-1; Molecular Innovations, Royal Oak, Mich.). Following a 1 hour incubation at room temperature, 70 nM of recombinant human tissue plasminogen activator (tPA) is added, and the combination of the substituted oxadiazolidinedione, PAI-1 and tPA is incubated for an additional 30 minutes. Following the second incubation, Spectrozyme-tPA (American Diagnostica, Greenwich, CT), a chromogenic substrate for tPA, is added and absorbance read at 405 nm at 0 and 60 minutes. Relative PAI-1 inhibition is equal to the residual tPA activity in the presence of WAY and PAI-1. Control treatments include the complete inhibition of tPA by PAI-1 at the molar ratio employed (2:1), and the absence of any effect of the substituted oxadiazolidinedione on tPA alone.
# Chain of human PAI-1 (P05121 24-402): as above
IC50 (human PAI-1) [µM],melting point [°C],inhibition at 100 µM [1] [%],Structure (SMILES)
9.3,118 to 120,,"CC/C(=C/Cn1oc(=O)[nH]c1=O)c1ccc2c(Cc3ccccc3)c(CC)oc2c1 [Compound 1, Z-2-[-3-(3-Benzyl-2-ethyl-benzofuran-6-yl)-pent-2-enyl]-[1,2,4]oxadiazolidine-3,5-dione]"
,,39,"CC/C(=C\Cn1oc(=O)[nH]c1=O)c1ccc2c(Cc3ccccc3)c(CC)oc2c1 [Compound 2, E-2-[-3-(3-Benzyl-2-ethyl-benzofuran-6-yl)-pent-2-enyl]-[1,2,4]oxadiazolidine-3,5-dione]"
